Legend:
[1] = Liquid, Ebulliometric method (Recirculating still)
[2] = refractive index (Na D-line) (dimensionless); details: 298.15 K; 101.33 kPa; Liquid; Standard Abbe refractometry

CCCS [1-propanethiol]
[1]
Details	vapor or sublimation pressure [kPa]
310.52 K	34.6
315.47 K	41.96
320.68 K	51.03
325.73 K	61.23
330.38 K	72.02
334.62 K	83.15
337.03 K	90.03
340.63 K	101.19

Details	refractive index
[2]	1.4353

Cc1ccccc1C [1,2-dimethylbenzene]
Details	refractive index
[2]	1.5026

CCSCC [3-thiapentane]
[1]
Details	vapor or sublimation pressure [kPa]
333.82 K	35.84
338.63 K	42.73
344.7 K	52.89
350.02 K	63.3
353.56 K	71.09
358.41 K	83.03
361.02 K	90.03
361.03 K	90.03
365.05 K	101.92

Details	refractive index
[2]	1.44

c1ccsc1 [thiophene]
[1]
Details	vapor or sublimation pressure [kPa]
328.01 K	37.5
331.52 K	42.75
337.52 K	53.02
341.13 K	60.12
346.44 K	71.92
350.46 K	82.01
353.38 K	90.03
356.73 K	99.99

Details	refractive index
[2]	1.5255

Cc1ccccc1 [toluene]
[1]
Details	vapor or sublimation pressure [kPa]
352.64 K	38.32
356.84 K	44.23
361.31 K	51.31
367.88 K	63.37
372.12 K	72.27
375.63 K	80.42
379.44 K	90.03
379.45 K	90.03

Details	refractive index
[2]	1.4939

Source: the NIST ThermoML archive (doi:10.1021/je060093l)
